Test results from patent US20110318393A1, “Substituted Pyrazole Compounds” (MIIKANA THERAPEUTICS, INC., priority 2008, published 2011).

Columns and labels:
Format in all cases: biochemical
recombinant Aurora A = molecular target: T1, recombinant Aurora A (Homo sapiens, UniProt O14965); test: Aurora A (Aurora 2) inhibition assay, Z'-Lyte kinase assay; settings: ATP 10 μM, 1 h; less than or equal to 100 nM
T1 construct: purchased Upstate, Lake Placid, N.Y
T1 sequence (O14965 1-403): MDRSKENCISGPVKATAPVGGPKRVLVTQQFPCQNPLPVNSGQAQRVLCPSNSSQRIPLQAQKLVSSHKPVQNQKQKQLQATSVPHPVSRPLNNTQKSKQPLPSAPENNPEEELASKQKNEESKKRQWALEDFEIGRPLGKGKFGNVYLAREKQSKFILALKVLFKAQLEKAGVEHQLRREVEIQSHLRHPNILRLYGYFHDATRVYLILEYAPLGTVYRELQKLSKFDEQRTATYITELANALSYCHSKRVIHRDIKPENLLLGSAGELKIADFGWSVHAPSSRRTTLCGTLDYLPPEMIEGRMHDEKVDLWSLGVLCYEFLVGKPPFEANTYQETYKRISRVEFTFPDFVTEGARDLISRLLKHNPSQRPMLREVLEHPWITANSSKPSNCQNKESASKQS
Procedure: Compounds were tested for their potency against recombinant Aurora A (Upstate, Lake Placid, N.Y.) using the PanVera Z′-Lyte kinase assay kit-Ser/Thr 1 peptide (Invitrogen, Carlsbad, Calif.). Assays were carried out in kinase assay buffer (50 mM HEPES, pH 7.5, 10 mM MgCl2, 5 mM EGTA, 0.05% Brij-35, 2 mM DTT). Test compounds were initially dissolved in DMSO at 100× the highest tested concentration, then serially diluted to 4× test concentrations in kinase assay buffer. Next, Aurora A (final concentration 200-500 ng/mL), Z′-Lyte Ser/Thr 1 peptide (final concentration 2 μM) and ATP (final concentration 10 μM) were added according to the manufacturer's instructions. Assays were carried out in half-area 96-well white polystyrene assay plates (Corning, Corning, N.Y.) in a final volume of 20 μl. The reaction was allowed to proceed for 1 h at room temperature in the dark, at which point the development reagent and stop reagent were added according to the manufacturer's instructions. Coumarin (Ex. 400 nm, Em. 465 nm) and fluorescein (Ex. 400 nm, Em. 565 nm) fluorescence values were measured on a SpectraFluor Plus plate reader (Tecan, Durham, N.C.). The emission ratio (coumarin/fluorescein) was determined and used to calculate the percent phosphorylation for each well. Wells containing substrate but no kinase and wells containing a phosphopeptide control were used to set 0% and 100% phosphorylation values, respectively. Typically 20-40% of the substrate was phosphorylated in wells without inhibitor. Dose-response curves of relative Aurora A activity vs. inhibitor concentration were plotted with Grafit (Erithacus Software, Horley, Surrey, UK).

Aurora B kinase = molecular target: T2, Aurora B kinase (Homo sapiens, UniProt Q96GD4); test: Aurora B (Aurora 1) inhibition assay, Z'-Lyte kinase assay; settings: ATP 50 μM, 16 h; less than or equal to 100 nM
T2 construct: purchased BPS Biosciences, San Diego, Calif

[1] = molecular target: T3, N-terminal His-tagged human Src (Homo sapiens, UniProt P12931); test: Src kinase inhibition assay (33P-ATP filter assay); settings: 40 minutes, room temperature; less than or equal to 100 nM
T3 construct: His (N); purchased Upstate USA Inc, Charlottesville, Va
Procedure: Compounds were assayed for Src kinase inhibitory activity using N-terminal His-tagged human Src (Upstate USA Inc, 706 Forest Street, Charlottesville, Va.). Serial dilutions of compound were assayed in a final reaction volume of 25 μL by incubating a solution of the above Src kinase (5-10 mU), 8 mM MOPS (3-(N-morpholino)propanesulfonic acid) pH 7.0, 0.2 mM EDTA (ethylenediamine tetracetic acid), 250 μM amino acid sequence KVEKIGEGTYGVVYK (Upstate USA Inc, 706 Forest Street, Charlottesville, Va.), and 10 mM magnesium acetate and [γ-^33P-ATP] (specific activity of about 500 cpm/pmol, concentration as required). The reaction was initiated by the addition of the magnesium acetate and [γ-^33P-ATP] mixture. After incubation for 40 minutes at room temperature, the reaction was stopped by the addition of 5 μL of a 3% phosphoric acid solution. A 10 μL aliquote of the reaction was then spotted onto a P30 filtermat (PerkinElmer, Wellesley, Mass.) and washed three times for five minutes in 75 mM phosphoric acid and once in methanol prior to drying and scintillation counting. Inhibition of Src activity was determined by comparison to assays that contained no inhibitor.

[2] = molecular target: T4, N-terminal GST-tagged recombinant human Flt3, residues 564-end (Homo sapiens, UniProt P36888); test: Flt3 kinase inhibition assay (33P-ATP filter assay); settings: 40 minutes, room temperature; less than or equal to 100 nM
T4 construct: recombinant human Flt3, residues 564-end; GST (N); purchased Upstate USA Inc, Charlottesville, Va
T4 sequence (P36888 564-993 limits assumed): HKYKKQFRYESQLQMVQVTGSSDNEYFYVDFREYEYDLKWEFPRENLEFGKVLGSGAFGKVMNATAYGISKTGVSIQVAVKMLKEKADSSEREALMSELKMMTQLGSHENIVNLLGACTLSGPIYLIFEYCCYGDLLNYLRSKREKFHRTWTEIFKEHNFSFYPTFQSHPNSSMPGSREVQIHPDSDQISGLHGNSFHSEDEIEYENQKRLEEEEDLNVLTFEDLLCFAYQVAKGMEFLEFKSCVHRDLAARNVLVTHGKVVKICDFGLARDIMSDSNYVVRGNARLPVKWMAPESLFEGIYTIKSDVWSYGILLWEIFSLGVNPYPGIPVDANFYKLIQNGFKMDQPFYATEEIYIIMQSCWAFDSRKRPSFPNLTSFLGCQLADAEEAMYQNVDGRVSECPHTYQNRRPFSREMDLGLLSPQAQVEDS
Procedure: (§1) Compounds were assayed for Flt3 kinase inhibitory activity using N-terminal GST-tagged recombinant human Flt3, residues 564-end (Upstate USA Inc, 706 Forest Street, Charlottesville, Va.). Serial dilutions of compound were assayed in a final reaction volume of 25 μL by incubating a solution of the above Flt3 kinase (5-10 mU), 8 mM MOPS (3-(N-morpholino)propanesulfonic acid) pH 7.0, 0.2 mM EDTA (ethylenediamine tetracetic acid), 50 μM amino acid sequence EAIYAAPFAKKK (Upstate USA Inc, 706 Forest Street, Charlottesville, Va.), and 10 mM magnesium acetate and [γ-^33P-ATP] (specific activity of about 500 cpm/pmol, concentration as required). The reaction was initiated by the addition of the magnesium acetate and [γ-^33P-ATP] mixture. After incubation for 40 minutes at room temperature, the reaction was stopped by the addition of 5 μL of a 3% phosphoric acid solution. A 10 μL aliquote of the reaction was then spotted onto a P30 filtermat (PerkinElmer, Wellesley, Mass.) and washed three times for five minutes in 75 mM phosphoric acid and once in methanol prior to drying and scintillation counting. Inhibition of Flt3 activity was determined by comparison to assays that contained no inhibitor.

[3] = molecular target: T5, N-terminal His6-tagged recombinant human KDR, residues 790-end (Homo sapiens, UniProt P35968); test: KDR kinase inhibition assay (33P-ATP filter assay); settings: 40 minutes, room temperature; less than or equal to 100 nM
T5 construct: recombinant human KDR, residues 790-end; His6 (N); purchased Upstate USA Inc, Charlottesville, Va
Procedure: as §1, with “KDR” for “Flt3”, “His6-tagged” for “GST-tagged”, “KDR,” for “Flt3,”, “790-end” for “564-end”, “0.33 mg/mL myelin basic protein” for “50 μM amino acid sequence EAIYAAPFAKKK”

Measured: IC50

T5 sequence (P35968 790-1356 limits assumed): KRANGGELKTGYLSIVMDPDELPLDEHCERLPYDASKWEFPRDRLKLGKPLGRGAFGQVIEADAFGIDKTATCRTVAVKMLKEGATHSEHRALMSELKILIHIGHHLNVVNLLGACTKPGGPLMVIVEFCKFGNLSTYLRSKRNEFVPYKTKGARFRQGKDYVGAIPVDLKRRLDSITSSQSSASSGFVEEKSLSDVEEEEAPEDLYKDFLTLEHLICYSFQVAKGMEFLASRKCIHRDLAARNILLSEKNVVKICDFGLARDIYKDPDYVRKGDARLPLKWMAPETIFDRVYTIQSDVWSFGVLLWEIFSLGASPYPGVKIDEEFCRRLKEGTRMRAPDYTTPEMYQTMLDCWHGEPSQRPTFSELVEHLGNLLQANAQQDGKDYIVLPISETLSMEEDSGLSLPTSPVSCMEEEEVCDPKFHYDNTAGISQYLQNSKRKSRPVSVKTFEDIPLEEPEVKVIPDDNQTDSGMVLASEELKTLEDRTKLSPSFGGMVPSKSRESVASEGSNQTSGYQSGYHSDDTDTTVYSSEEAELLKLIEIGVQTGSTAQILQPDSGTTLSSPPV
T3 sequence (P12931 whole entry): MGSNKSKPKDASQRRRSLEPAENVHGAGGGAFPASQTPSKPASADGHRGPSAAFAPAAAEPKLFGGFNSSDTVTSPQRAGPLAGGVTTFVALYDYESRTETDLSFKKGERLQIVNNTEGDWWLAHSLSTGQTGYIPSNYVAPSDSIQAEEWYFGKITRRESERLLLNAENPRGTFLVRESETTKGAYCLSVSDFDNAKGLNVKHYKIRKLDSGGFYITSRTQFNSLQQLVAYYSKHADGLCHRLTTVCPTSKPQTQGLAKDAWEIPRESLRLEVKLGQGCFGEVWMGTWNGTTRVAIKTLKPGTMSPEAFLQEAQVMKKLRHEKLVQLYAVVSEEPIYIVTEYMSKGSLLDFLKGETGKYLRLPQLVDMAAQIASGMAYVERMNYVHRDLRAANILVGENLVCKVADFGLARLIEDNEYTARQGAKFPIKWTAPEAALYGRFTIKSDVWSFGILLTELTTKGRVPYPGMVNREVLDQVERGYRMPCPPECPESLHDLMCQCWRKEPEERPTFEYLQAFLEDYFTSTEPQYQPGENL
T2 sequence (Q96GD4 whole entry): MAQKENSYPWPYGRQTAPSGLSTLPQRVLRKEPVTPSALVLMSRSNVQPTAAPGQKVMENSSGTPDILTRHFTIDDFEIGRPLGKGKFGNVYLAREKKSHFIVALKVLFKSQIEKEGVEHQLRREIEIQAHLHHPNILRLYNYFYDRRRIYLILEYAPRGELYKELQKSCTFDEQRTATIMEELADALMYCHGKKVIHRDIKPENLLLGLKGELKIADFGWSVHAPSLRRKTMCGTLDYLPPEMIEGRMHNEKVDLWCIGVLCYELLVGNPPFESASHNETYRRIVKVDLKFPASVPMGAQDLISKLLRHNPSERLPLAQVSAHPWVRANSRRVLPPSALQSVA

Cc1cc(Nc2cc(N3CC(O)(C4CC4)C3)nc(/C=C/c3ccccc3)n2)n[nH]1 [Compound 3, (E)-3-cyclopropyl-1-(6-(5-methyl-1H-pyrazol-3-ylamino)-2-styrylpyrimidin-4-yl)azetidin-3-ol]
≤ 100 nM: all assays above

Cc1cc(Nc2cc(N3CCC(N4CCOCC4)CC3)nc(/C=C/c3ccccc3)n2)n[nH]1 [Compound 7, (E)-N-(5-methyl-1H-pyrazol-3-yl)-6-(4-morpholinopiperidin-1-yl)-2-styrylpyrimidin-4-amine]
≤ 100 nM: all assays above

Cc1cc(Nc2cc(N3CC(N4CCC(O)CC4)C3)nc(/C=C/c3ccccc3)n2)n[nH]1 [Compound 21, (E)-1-(1-(6-(5-methyl-1H-pyrazol-3-ylamino)-2-styrylpyrimidin-4-yl)azetidin-3-yl)piperidin-4-ol]
not listed: Aurora B kinase
≤ 100 nM: all other assays above

Cc1cc(Nc2cc(N3CCC(N4CCCCC4)C3)nc(/C=C/c3ccccc3)n2)n[nH]1 (centres unmarked) [Compound 23, (E)-N-(5-methyl-1H-pyrazol-3-yl)-6-(3-(piperidin-1-yl)pyrrolidin-1-yl)-2-styrylpyrimidin-4-amine]
not listed: Aurora B kinase
≤ 100 nM: all other assays above

Cc1cc(Nc2cc(N3CCN(CC4CCCO4)CC3)nc(/C=C/c3ccccc3)n2)n[nH]1 (centres unmarked) [Compound 24, (E)-N-(5-methyl-1H-pyrazol-3-yl)-2-styryl-6-(4-((tetrahydrofuran-2-yl)methyl)piperazin-1-yl)pyrimidin-4-amine]
not listed: Aurora B kinase
≤ 100 nM: all other assays above

Cc1cc(Nc2cc(N3CCC(CN4CCCCC4)CC3)nc(/C=C/c3ccccc3)n2)n[nH]1 [Compound 30]
not listed: Aurora B kinase
≤ 100 nM: all other assays above
